Source: patent US4112228A, “7-(D-α-Hydroxy-2-arylacetamido)-3-(2-carboxyalkyl-2,3-dihydro-s-tri azolo-[4,3-b]pyridazin-3-on-6-ylthiomethyl)-3-cephem-4-carboxylic acids and derivatives” (priority 1977, dated 1978)
≈ marks a conversion by molar mass, not a printed value. Like-named read-outs stand apart in the source and are kept apart here.

Experiments:
Kl. pneumoniae = test: MIC by Steers' agar dilution method; assay type: cell-based; settings: Klebsiella pneumoniae
Shig. sonnei = test: MIC by Steers' agar dilution method; assay type: cell-based; settings: Shigella sonnei, MHA
B. anthracis = test: microbe, parasite or virus in culture; assay type: cell-based; settings: Bacillus anthracis
[1] = Blood levels in mice after subcutaneous administration; assay type: in vivo; settings: mouse, read-out: Blood level; for concentration at 0.25 h: 15'; for concentration at 0.5 h: 30'; for concentration at 1 h: 60'; for concentration at 2 h: 120'
Protocol: Groups of mice were administered subcutaneously graded doses of 40, 20 and 10 mg./kg..

S. aureus Smith = test: Standard experimental infection in mice; assay type: in vivo; settings: Table 6
[2] = test system: E. cloacae A20464 (El-19); test: Standard experimental infection in mice; assay type: in vivo; settings: Run C-811
St. faecalis = test: MIC by Steers' agar dilution method; settings: Enterococcus faecalis
Ps. aeruginosa = test: MIC by Steers' agar dilution method; settings: Pseudomonas aeruginosa
Shig. dysenteriae = test: MIC by Steers' agar dilution method; settings: Shigella dysenteriae, MHA
Sal. enteritidis = test: MIC by Steers' agar dilution method; settings: Salmonella enterica
S. pyogenes = test: MIC by Steers' agar dilution method
D. pneumoniae = test: MIC by Steers' agar dilution method
S. typhimurium = test: MIC by Steers' agar dilution method; settings: Salmonella enterica
Citrobacter sp. = test: MIC by Steers' agar dilution method
P. vulgaris A9436 (Pv-1) = test: Standard experimental infection (single sc treatment); settings: for No. of survivors/No. tested: Run C-808, single sc

Molecule `O=C(O)Cn1nc2ccc(SCC3=C(C(=O)O)N4C(=O)C(NC(=O)[C@H](O)c5ccccc5)[C@H]4SC3)nn2c1=O` (stereo partly drawn) [BB-S488, 7-(D-Mandelamido)-3-(2-carboxymethyl-2,3-dihydro-s-triazolo[4,3-b]pyridazin-3-on-6-ylthiomethyl)-3-cephem-4-carboxylic Acid] has an MIC (Kl. pneumoniae; A9678, MHA, Table 1) of 3.1 mg/L (≈ 5.41 µM), an MIC (Kl. pneumoniae; A9867, MHA, Table 1) of 0.2 mg/L (≈ 0.349 µM) and an MIC (Kl. pneumoniae; A9977, MHA, Table 1) of 0.05 mg/L (≈ 0.0873 µM). It also gave an MIC (Kl. pneumoniae; A15130, MHA, Table 1) of 0.2 mg/L (≈ 0.349 µM), an MIC (Kl. pneumoniae; Kp-1 D11, MHA, Table 3) of 0.1 mg/L (≈ 0.175 µM) and an MIC (Kl. pneumoniae; Kp-2 A9678, MHA, Table 3) of 3.1 mg/L (≈ 5.41 µM). It also gave an MIC (Kl. pneumoniae; Kp-3 A9977, HIA, Table 4) of 0.2 mg/L (≈ 0.349 µM), an MIC (Kl. pneumoniae; Kp-3 A9977, MHA, Table 3) of 0.1 mg/L (≈ 0.175 µM) and an MIC (Kl. pneumoniae; Kp-3 A9977, MHA, Table 4) of 0.2 mg/L (≈ 0.349 µM). For the same molecule, the MIC (Kl. pneumoniae; Kp-3 A9977, NA, Table 4) was 0.4 mg/L (≈ 0.699 µM), the MIC (Kl. pneumoniae; Kp-4 A15130, HIA, Table 4) was 0.8 mg/L (≈ 1.4 µM) and the MIC (Kl. pneumoniae; Kp-4 A15130, MHA, Table 3) was 0.2 mg/L (≈ 0.349 µM). It also gave an MIC (Kl. pneumoniae; Kp-4 A15130, MHA, Table 4) of 0.4 mg/L (≈ 0.699 µM), an MIC (Kl. pneumoniae; Kp-4 A15130, NA, Table 4) of 0.8 mg/L (≈ 1.4 µM) and an MIC (Kl. pneumoniae; Kp-7 A9867, MHA, Table 3) of 0.4 mg/L (≈ 0.699 µM). It also gave an MIC (Kl. pneumoniae; Kp-8 A20680, MHA, Table 3) of 25 mg/L (≈ 43.7 µM), an MIC (Kl. pneumoniae; Kp-9 A20636, MHA, Table 3) of 12.5 mg/L (≈ 21.8 µM) and an MIC (Kl. pneumoniae; Kp-10 A20328, MHA, Table 3) of 6.3 mg/L (≈ 11 µM). The MIC (Kl. pneumoniae; Kp-11 A20330, MHA, Table 3) was 1.6 mg/L (≈ 2.79 µM), the MIC (Kl. pneumoniae; Kp-12 A21228, MHA, Table 3) was 6.3 mg/L (≈ 11 µM) and the MIC (Kl. pneumoniae; strain not named (1st of 4), MHA, Example 10) was 3.1 mg/L (≈ 5.41 µM). For the same molecule, the MIC (Kl. pneumoniae; strain not named (2nd of 4), MHA, Example 10) was 0.1 mg/L (≈ 0.175 µM), the MIC (Kl. pneumoniae; strain not named (3rd of 4), MHA, Example 10) was 0.4 mg/L (≈ 0.699 µM) and the MIC (Kl. pneumoniae; strain not named (4th of 4), MHA, Example 10) was 0.2 mg/L (≈ 0.349 µM). The MIC (Shig. sonnei; A9516, Table 1) was 0.025 mg/L (≈ 0.0437 µM), the MIC (Shig. sonnei; Example 10) was 0.05 mg/L (≈ 0.0873 µM) and the MIC (Shig. sonnei; Ss-1 Yale, Table 3) was 0.1 mg/L (≈ 0.175 µM). It also gave an MIC (B. anthracis; Ba-3 A9504, HIA, Table 4) of 0.2 mg/L (≈ 0.349 µM), an MIC (B. anthracis; Ba-3 A9504, MHA, Table 4) of 0.2 mg/L (≈ 0.349 µM) and an MIC (B. anthracis; Ba-3 A9504, NA, Table 4) of 0.4 mg/L (≈ 0.699 µM). The MIC (B. anthracis; MHA, Example 10) was 0.2 mg/L (≈ 0.349 µM), the concentration at 0.25 h ([1]; sc 10 mg./kg.) was 5 µg/mL and the concentration at 0.5 h ([1]; sc 10 mg./kg.) was 3 µg/mL. It also gave a concentration at 1 h ([1]; sc 10 mg./kg.) of 0.8 µg/mL, a concentration at 0.25 h ([1]; sc 20 mg./kg.) of 7.4 µg/mL and a concentration at 0.5 h ([1]; sc 20 mg./kg.) of 6 µg/mL. For the same molecule, the concentration at 1 h ([1]; sc 20 mg./kg.) was 4.3 µg/mL, the concentration at 2 h ([1]; sc 20 mg./kg.) was 0.7 µg/mL and the concentration at 0.25 h ([1]; sc 40 mg./kg.) was 19 µg/mL. For the same molecule, the concentration at 0.5 h ([1]; sc 40 mg./kg.) was 17 µg/mL, the concentration at 1 h ([1]; sc 40 mg./kg.) was 12 µg/mL and the concentration at 2 h ([1]; sc 40 mg./kg.) was 1.6 µg/mL. For the same molecule, the “No. of survivors/No. tested” value (S. aureus Smith; 0.1 mg./kg.) was 2/5, the “No. of survivors/No. tested” value (S. aureus Smith; 0.4 mg./kg.) was 5/5 and the “No. of survivors/No. tested” value (S. aureus Smith; 1.6 mg./kg.) was 5/5. The “No. of survivors/No. tested” value (S. aureus Smith; 6.3 mg./kg.) was 5/5, the “No. of survivors/No. tested” value (S. aureus Smith; 25 mg./kg.) was 5/5 and the ED50 (S. aureus Smith; Staphylococcus aureus, read-out: PD50) was 0.12 mg/kg. The ED50 ([2]; Enterobacter cloacae, read-out: PD50) was 0.54 mg/kg, the “No. of survivors/No. tested” value ([2]; 0.4 mg./kg.) was 2/5 and the “No. of survivors/No. tested” value ([2]; 1.6 mg./kg.) was 4/5. For the same molecule, the “No. of survivors/No. tested” value ([2]; 6.3 mg./kg.) was 5/5, the “No. of survivors/No. tested” value ([2]; 25 mg./kg.) was 5/5 and the “No. of survivors/No. tested” value ([2]; 100 mg./kg.) was 5/5. The MIC (St. faecalis; A9536, MHA, Table 1) was 100 mg/L (≈ 175 µM), the MIC (St. faecalis; MHA, Example 10) was greater than 100 mg/L and the MIC (St. faecalis; Sf-3 S. faecalis A9536, HIA, Table 4) was greater than 100 mg/L. It also gave an MIC (St. faecalis; Sf-3 S. faecalis A9536, MHA, Table 4) greater than 100 mg/L, an MIC (St. faecalis; Sf-3 S. faecalis A9536, NA, Table 4) greater than 100 mg/L and an MIC (Ps. aeruginosa; A9843, MHA, Table 1) greater than 100 mg/L. It also gave an MIC (Ps. aeruginosa; A9930, MHA, Table 1) greater than 100 mg/L, an MIC (Ps. aeruginosa; Pa-3 A9930, HIA, Table 4) greater than 100 mg/L and an MIC (Ps. aeruginosa; Pa-3 A9930, MHA, Table 4) greater than 100 mg/L. It also gave an MIC (Ps. aeruginosa; Pa-3 A9930, NA, Table 4) of 100 mg/L (≈ 175 µM), an MIC (Ps. aeruginosa; strain not given (1st of 2), MHA, Example 10) greater than 100 mg/L and an MIC (Ps. aeruginosa; strain not named (2nd of 2), MHA, Example 10) greater than 100 mg/L. The MIC (Shig. dysenteriae; Example 10) was 0.025 mg/L (≈ 0.0437 µM), the MIC (Shig. dysenteriae; Table 1) was 0.025 mg/L (≈ 0.0437 µM) and the MIC (Shig. dysenteriae; Sd-1, Table 3) was 0.1 mg/L (≈ 0.175 µM). It also gave an MIC (Sal. enteritidis; A9531, MHA, Table 1) of 0.05 mg/L (≈ 0.0873 µM), an MIC (Sal. enteritidis; MHA, Example 10) of 0.025 mg/L (≈ 0.0437 µM) and an MIC (Sal. enteritidis; Se-1 A9531, MHA, Table 3) of 0.1 mg/L (≈ 0.175 µM). It also gave an MIC (S. pyogenes) of 0.2 mg/L (≈ 0.349 µM), an MIC (S. pyogenes; Sp-2 Dick, MHA, Table 2) of 0.4 mg/L (≈ 0.699 µM) and an MIC (S. pyogenes; Sp-3 A9604, MHA, Table 2) of 0.4 mg/L (≈ 0.699 µM). For the same molecule, the MIC (S. pyogenes; Sp-5 A15040, MHA, Table 2) was 0.4 mg/L (≈ 0.699 µM), the MIC (S. pyogenes; Sp-6 A20066, MHA, Table 2) was 0.4 mg/L (≈ 0.699 µM) and the MIC (S. pyogenes; Sp-7 Dig 7, MHA, Table 2) was 0.4 mg/L (≈ 0.699 µM). The MIC (S. pyogenes; Sp-8 A15041, MHA, Table 2) was 0.4 mg/L (≈ 0.699 µM), the MIC (S. pyogenes; Sp-9 A20201, MHA, Table 2) was 0.4 mg/L (≈ 0.699 µM) and the MIC (S. pyogenes; Sp-10 A20202, MHA, Table 2) was 0.4 mg/L (≈ 0.699 µM). The MIC (S. pyogenes; Streptococcus pyogenes) was 0.4 mg/L (≈ 0.699 µM), the MIC (D. pneumoniae; Dp-2 Type I Neufeld, MHA, Table 2) was 0.2 mg/L (≈ 0.349 µM) and the MIC (D. pneumoniae; Dp-3 Type III, MHA, Table 2) was 0.2 mg/L (≈ 0.349 µM). For the same molecule, the MIC (D. pneumoniae; Dp-4 A9585, MHA, Table 2) was 0.2 mg/L (≈ 0.349 µM), the MIC (D. pneumoniae; Dp-5 A15069, MHA, Table 2) was 0.2 mg/L (≈ 0.349 µM) and the MIC (D. pneumoniae; Dp-6 A20167, MHA, Table 2) was 0.2 mg/L (≈ 0.349 µM). The MIC (D. pneumoniae; Dp-7 A20759, MHA, Table 2) was 0.2 mg/L (≈ 0.349 µM), the MIC (D. pneumoniae; Dp-8 A20769, MHA, Table 2) was 0.2 mg/L (≈ 0.349 µM) and the MIC (D. pneumoniae; Dp-9 A20770, MHA, Table 2) was 0.2 mg/L (≈ 0.349 µM). It also gave an MIC (D. pneumoniae; Streptococcus pneumoniae) of 0.2 mg/L (≈ 0.349 µM), an MIC (S. typhimurium) of 0.1 mg/L (≈ 0.175 µM) and an MIC (Citrobacter sp.; Citrobacter) of 1.6 mg/L (≈ 2.79 µM). For the same molecule, the MIC (Citrobacter sp.; Cx-2 A20694, MHA, Table 3) was 1.6 mg/L (≈ 2.79 µM), the MIC (Citrobacter sp.; Cx-3 A20695, MHA, Table 3) was 1.6 mg/L (≈ 2.79 µM) and the ED50 (P. vulgaris A9436 (Pv-1); Proteus vulgaris, in Mus musculus, sc, read-out: PD50) was 1.1 mg/kg. For the same molecule, the “No. of survivors/No. tested” value (P. vulgaris A9436 (Pv-1); 0.4 mg./kg.) was 1/5, the “No. of survivors/No. tested” value (P. vulgaris A9436 (Pv-1); 1.6 mg./kg.) was 3/5 and the “No. of survivors/No. tested” value (P. vulgaris A9436 (Pv-1); 6.3 mg./kg.) was 5/5. The “No. of survivors/No. tested” value (P. vulgaris A9436 (Pv-1); 25 mg./kg.) was 5/5.
